From PubChem BioAssay AID1963851 (Molecular Pharmacology Branch, DTP, NCI, 2024)

System: 188146-221-R-J1-PDC complex spheroid viability
Assay: Anticancer human tumor 188146-221-R-J1-PDC patient-derived colon adenocarcinoma cell line growth inhibition [POLQ]
Conditions: for IC50: curve of first compound; for viability, T/C: stronger effect = lower value; active means viability on the fitted dose curve at most 10% of control; inactive means the rest
How it was run: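 Patient-derived tumour cells were co-cultured with HUVEC and mesenchymal stem cells as multicellular spheroids at 37 °C. They were treated with POLQ inhibitors (novobiocin, ART-558, RP6685) alone or combined with other agents. Top concentrations were at or near clinical Cmax (otherwise 10 microM; SN-38 at 1 microM), decreasing in half-log steps.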

[1] = second compound 0.0316 µM, first compound 0.0316 µM
[2] = second compound 0.0316 µM, first compound 0.1 µM
[3] = second compound 0.0316 µM, first compound 0.316 µM
[4] = second compound 0.0316 µM, first compound 1 µM
[5] = second compound 0.0316 µM, first compound 3.16 µM
[6] = second compound 0.0316 µM, first compound 10 µM
[7] = second compound 0.1 µM, first compound 0.0316 µM
[8] = second compound 0.1 µM, first compound 0.1 µM
[9] = second compound 0.1 µM, first compound 0.316 µM
[10] = second compound 0.1 µM, first compound 1 µM
[11] = second compound 0.1 µM, first compound 3.16 µM
[12] = second compound 0.1 µM, first compound 10 µM
[13] = second compound 0.316 µM, first compound 0.0316 µM
[14] = second compound 0.316 µM, first compound 0.1 µM
[15] = second compound 0.316 µM, first compound 0.316 µM
[16] = second compound 0.316 µM, first compound 1 µM
[17] = second compound 0.316 µM, first compound 3.16 µM
[18] = second compound 0.316 µM, first compound 10 µM
[19] = second compound 1 µM, first compound 0.0316 µM
[20] = second compound 1 µM, first compound 0.1 µM
[21] = second compound 1 µM, first compound 0.316 µM
[22] = second compound 1 µM, first compound 1 µM
[23] = second compound 1 µM, first compound 3.16 µM
[24] = second compound 1 µM, first compound 10 µM
[25] = second compound 3.16 µM, first compound 0.0316 µM
[26] = second compound 3.16 µM, first compound 0.1 µM
[27] = second compound 3.16 µM, first compound 0.316 µM
[28] = second compound 3.16 µM, first compound 1 µM
[29] = second compound 3.16 µM, first compound 3.16 µM
[30] = second compound 3.16 µM, first compound 10 µM
[31] = second compound 10 µM, first compound 0.0316 µM
[32] = second compound 10 µM, first compound 0.1 µM
[33] = second compound 10 µM, first compound 0.316 µM
[34] = second compound 10 µM, first compound 1 µM
[35] = second compound 10 µM, first compound 3.16 µM
[36] = second compound 10 µM, first compound 10 µM
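Further: spheroids exposed to compounds for seven days.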
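Wherever viability, T/C is given: 100% = DMSO vehicle control viability.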

COc1cc(C2c3cc4c(cc3C(OC3OC5COC(C)OC5C(O)C3O)C3COC(=O)C23)OCO4)cc(OC)c1O (stereo not drawn) + Cc1cccc(N(C)C(=O)C2C(O)CCN2c2nc(C)cc(C(F)(F)F)c2C#N)c1
0.887 µM: IC50 (second compound 0.0316 µM)
0.664 µM: IC50 (second compound 3.16 µM)
0.723 µM: IC50 (second compound 0.316 µM)
0.789 µM: IC50 (second compound 0.1 µM)
0.748 µM: IC50 (second compound 1 µM)
inactive: viability, T/C [1] 115% | viability, T/C [2] 99.9% | viability, T/C [3] 77.3% | viability, T/C [4] 47.6% | viability, T/C [5] 27.5% | viability, T/C [6] 25.9% | viability, T/C [7] 111% | viability, T/C [8] 99.2% | viability, T/C [9] 77.8% | viability, T/C [10] 43.5% | viability, T/C [11] 25.1% | viability, T/C [12] 28.3% | viability, T/C [13] 108% | viability, T/C [14] 102% | viability, T/C [15] 71.7% | viability, T/C [16] 43% | viability, T/C [17] 26.4% | viability, T/C [18] 28.7% | viability, T/C [19] 108% | viability, T/C [20] 104% | viability, T/C [21] 70.5% | viability, T/C [22] 45.6% | viability, T/C [23] 27.2% | viability, T/C [24] 30.8% | viability, T/C [25] 101% | viability, T/C [26] 103% | viability, T/C [27] 70.1% | viability, T/C [28] 40.6% | viability, T/C [29] 29.4% | viability, T/C [30] 31.1% | viability, T/C [31] 93.1% | viability, T/C [32] 79.6% | viability, T/C [33] 61.2% | viability, T/C [34] 32.4% | viability, T/C [35] 29.1% | viability, T/C [36] 32.8%
0.483 µM: IC50 (second compound 10 µM)

O=c1[nH]cc(F)c(=O)[nH]1 + Cc1cccc(N(C)C(=O)C2C(O)CCN2c2nc(C)cc(C(F)(F)F)c2C#N)c1
1.69 µM: IC50 (second compound 10 µM)
1.34 µM: IC50 (second compound 3.16 µM)
1.82 µM: IC50 (second compound 0.316 µM)
1.38 µM: IC50 (second compound 0.1 µM)
2.44 µM: IC50 (second compound 0.0316 µM)
inactive: viability, T/C [1] 107% | viability, T/C [2] 91.7% | viability, T/C [3] 73.5% | viability, T/C [4] 57.7% | viability, T/C [5] 50.8% | viability, T/C [6] 34.5% | viability, T/C [7] 102% | viability, T/C [8] 96.7% | viability, T/C [9] 73.9% | viability, T/C [10] 52.6% | viability, T/C [11] 45% | viability, T/C [12] 37% | viability, T/C [13] 93% | viability, T/C [14] 87% | viability, T/C [15] 80% | viability, T/C [16] 57% | viability, T/C [17] 43.5% | viability, T/C [18] 34.9% | viability, T/C [19] 79.8% | viability, T/C [20] 84.6% | viability, T/C [21] 74.3% | viability, T/C [22] 57.1% | viability, T/C [23] 41.7% | viability, T/C [24] 37.5% | viability, T/C [25] 90.2% | viability, T/C [26] 82.5% | viability, T/C [27] 72.9% | viability, T/C [28] 50.2% | viability, T/C [29] 44.7% | viability, T/C [30] 36.2% | viability, T/C [31] 91.1% | viability, T/C [32] 85.5% | viability, T/C [33] 76.6% | viability, T/C [34] 51.7% | viability, T/C [35] 47.9% | viability, T/C [36] 34.4%
1.68 µM: IC50 (second compound 1 µM)

COc1ccc([C@@H](O)c2cc(-c3ncnc4cc(N5CCOCC5)ccc34)c(F)cc2Cl)nn1 + Cc1cccc(N(C)C(=O)C2C(O)CCN2c2nc(C)cc(C(F)(F)F)c2C#N)c1
4.91 µM: IC50 (second compound 3.16 µM)
4.67 µM: IC50 (second compound 1 µM)
5.62 µM: IC50 (second compound 0.1 µM)
1.86 µM: IC50 (second compound 10 µM)
4.69 µM: IC50 (second compound 0.316 µM)
inactive: viability, T/C [1] 97.6% | viability, T/C [2] 98% | viability, T/C [3] 87.9% | viability, T/C [4] 89.2% | viability, T/C [5] 72% | viability, T/C [6] 30.3% | viability, T/C [7] 93.6% | viability, T/C [8] 111% | viability, T/C [9] 94.3% | viability, T/C [10] 80.4% | viability, T/C [11] 61.7% | viability, T/C [12] 39.4% | viability, T/C [13] 100% | viability, T/C [14] 101% | viability, T/C [15] 100% | viability, T/C [16] 94% | viability, T/C [17] 59.4% | viability, T/C [18] 32% | viability, T/C [19] 97.9% | viability, T/C [20] 94.3% | viability, T/C [21] 94.4% | viability, T/C [22] 78.7% | viability, T/C [23] 59.6% | viability, T/C [24] 32.5% | viability, T/C [25] 97.3% | viability, T/C [26] 93.3% | viability, T/C [27] 90.5% | viability, T/C [28] 73.1% | viability, T/C [29] 61.7% | viability, T/C [30] 33.8% | viability, T/C [31] 88.2% | viability, T/C [32] 80.8% | viability, T/C [33] 85.9% | viability, T/C [34] 56.3% | viability, T/C [35] 51.9% | viability, T/C [36] 36.9%
5.81 µM: IC50 (second compound 0.0316 µM)

COc1cccc2c1C(=O)c1c(O)c3c(c(O)c1C2=O)CC(O)(C(=O)CO)CC3OC1CC(N)C(O)C(C)O1 (stereo not drawn) + Cc1cccc(N(C)C(=O)C2C(O)CCN2c2nc(C)cc(C(F)(F)F)c2C#N)c1
0.146 µM: IC50 (second compound 0.1 µM)
0.0979 µM: IC50 (second compound 3.16 µM)
0.0754 µM: IC50 (second compound 10 µM)
inactive: viability, T/C [1] 83.8% | viability, T/C [2] 48% | viability, T/C [3] 31.3% | viability, T/C [4] 9.29% | viability, T/C [7] 75.1% | viability, T/C [8] 56.8% | viability, T/C [9] 34.5% | viability, T/C [10] 8.42% | viability, T/C [13] 81% | viability, T/C [14] 48.9% | viability, T/C [15] 36.7% | viability, T/C [16] 10% | viability, T/C [19] 74% | viability, T/C [20] 51% | viability, T/C [21] 32.6% | viability, T/C [22] 10.9% | viability, T/C [25] 69.8% | viability, T/C [26] 47.2% | viability, T/C [27] 29.8% | viability, T/C [31] 74.8% | viability, T/C [32] 39.5% | viability, T/C [33] 26.4%
active: viability, T/C [5] 0.34% | viability, T/C [6] 0.84% | viability, T/C [11] 0.28% | viability, T/C [12] 0.45% | viability, T/C [17] 0.19% | viability, T/C [18] 0.47% | viability, T/C [23] 0.17% | viability, T/C [24] 0.44% | viability, T/C [28] 6.51% | viability, T/C [29] 0.32% | viability, T/C [30] 0.65% | viability, T/C [34] 3.83% | viability, T/C [35] 0.3% | viability, T/C [36] 0.64%
0.102 µM: IC50 (second compound 0.0316 µM)
0.117 µM: IC50 (second compound 0.316 µM) | IC50 (second compound 1 µM)
